# In ChEMBL document CHEMBL2034879, “Discovery of SCH 900271, a Potent Nicotinic Acid Receptor Agonist for the Treatment of Dyslipidemia” (ACS Med Chem Lett, 2012):
# The source made the active and inactive calls. No cut-off for these calls is given here.
# Tests used:
# [1] = species: Mus musculus; experiment: Nephrotoxicity in CD1 mouse assessed as acute renal necrosis; assay type: toxicity, organism-based; details: in vivo
# [2] = test system: Rattus norvegicus; experiment: Antidyslipidemic activity in fasted Sprague-Dawley rat assessed as reduction in free fatty acid level in plasma at 1 mg/kg, po after 1 hr relative to vehicle-treated control; assay type: functional; set-up: scale not given: the % may be the effect or the level left
# [3] = species: Rattus norvegicus; experiment: Nephrotoxicity in rat assessed as increase in serum blood urea nitrogen level; assay type: toxicity, organism-based; details: in vivo
# [4] = target: Hydroxycarboxylic acid receptor 2 (Rattus norvegicus, UniProt Q80Z39); experiment: Agonist activity at rat GPR109a; assay type: functional
# [5] = test system: Mus musculus; experiment: Nephrotoxicity in CD1 mouse assessed as increase in creatinine level at 100 mg/kg; assay type: toxicity, organism-based; set-up: dose 100 mg/kg; details: in vivo
# [6] = species: Rattus norvegicus; experiment: Nephrotoxicity in rat assessed as increase in creatinine level; assay type: toxicity, organism-based; details: in vivo
# [7] = test system: Canis familiaris; experiment: Antidyslipidemic activity in fasted beagle dog assessed as reduction in free fatty acid level in plasma at 0.3 mg/kg, po after 1 hr relative to vehicle-treated control; assay type: functional, Canis lupus familiaris; set-up: scale not given: the % may be the effect or the level left
# [8] = Agonist activity at dog GPR109a; assay type: functional, Canis lupus familiaris
# [9] = target: Hydroxycarboxylic acid receptor 3 (Homo sapiens, UniProt P49019); experiment: Agonist activity at human GPR109b; assay type: functional
# [10] = test system: Rattus norvegicus; experiment: Antidyslipidemic activity in fasted Sprague-Dawley rat assessed as reduction in triglyceride level in plasma at 1 mg/kg, po after 1 hr relative to vehicle-treated control; assay type: functional; set-up: scale not given: the % may be the effect or the level left
# [11] = test system: Mus musculus; experiment: Nephrotoxicity in CD1 mouse assessed as increase in serum blood urea nitrogen level at 100 mg/kg; assay type: toxicity, organism-based; set-up: dose 100 mg/kg; details: in vivo
# [12] = target: Hydroxycarboxylic acid receptor 2 (Mus musculus, UniProt Q9EP66); experiment: Agonist activity at mouse GPR109a; assay type: functional
# [13] = test system: Canis familiaris; experiment: Antidyslipidemic activity in po dosed fasted beagle dog assessed as reduction in free fatty acid level in plasma relative to vehicle-treated control; assay type: functional, organism-based; details: Canis lupus familiaris
# [14] = test system: Canis familiaris; experiment: Antidyslipidemic activity in fasted beagle dog assessed as reduction in free fatty acid level in plasma at 3 mg/kg, po after 1 hr relative to vehicle-treated control; assay type: functional, Canis lupus familiaris; set-up: scale not given: the % may be the effect or the level left
# [15] = test system: Canis familiaris; experiment: Toxicity in beagle dog assessed as flushing at 3 mg/kg, po; assay type: organism-based, Canis lupus familiaris; set-up: dose 3 mg/kg, route oral; details: in vivo
# [16] = test system: Canis familiaris; experiment: Antidyslipidemic activity in po dosed fasted beagle dog assessed as reduction in free fatty acid level in plasma after 4 hr relative to vehicle-treated control; assay type: functional, organism-based; details: Canis lupus familiaris
# [17] = test system: Canis familiaris; experiment: Antidyslipidemic activity in fasted beagle dog assessed as reduction in free fatty acid level in plasma at 2 mg/kg, po after 1 hr relative to vehicle-treated control; assay type: functional, Canis lupus familiaris; set-up: scale not given: the % may be the effect or the level left
# [18] = test system: Rattus norvegicus; experiment: Antidyslipidemic activity in po dosed fasted Sprague-Dawley rat assessed as reduction in triglyceride level in plasma; assay type: functional
# [19] = Oral bioavailability in beagle dog at 1 mg/kg; assay type: ADME, organism-based, Canis lupus familiaris; details: in vivo
# [20] = target: Voltage-gated inwardly rectifying potassium channel KCNH2 (Homo sapiens, UniProt Q12809); experiment: Inhibition of human ERG up to 10 uM by patch clamp assay
# [21] = test system: Liver microsomes; experiment: Intrinsic clearance in human liver microsomes assessed per 10^6 cells; assay type: ADME, Microsome
# [22] = test system: Rattus norvegicus; experiment: Antidyslipidemic activity in po dosed fasted Sprague-Dawley rat assessed as reduction in free fatty acid level in plasma; assay type: functional; details: for minimal effective dose: read-out: MED
# [23] = target: Cytochrome P450 3A4 (Homo sapiens, UniProt P08684); experiment: Inhibition of human CYP3A4; assay type: ADME
# [24] = target: Cytochrome P450 2C9 (Homo sapiens, UniProt P11712); experiment: Inhibition of human CYP2C9; assay type: ADME
# [25] = target: T1, Cytochrome P450 1A2 (Homo sapiens, UniProt P05177); experiment: Inhibition of human CYP1A2; assay type: ADME
# T1 sequence (P05177 whole entry): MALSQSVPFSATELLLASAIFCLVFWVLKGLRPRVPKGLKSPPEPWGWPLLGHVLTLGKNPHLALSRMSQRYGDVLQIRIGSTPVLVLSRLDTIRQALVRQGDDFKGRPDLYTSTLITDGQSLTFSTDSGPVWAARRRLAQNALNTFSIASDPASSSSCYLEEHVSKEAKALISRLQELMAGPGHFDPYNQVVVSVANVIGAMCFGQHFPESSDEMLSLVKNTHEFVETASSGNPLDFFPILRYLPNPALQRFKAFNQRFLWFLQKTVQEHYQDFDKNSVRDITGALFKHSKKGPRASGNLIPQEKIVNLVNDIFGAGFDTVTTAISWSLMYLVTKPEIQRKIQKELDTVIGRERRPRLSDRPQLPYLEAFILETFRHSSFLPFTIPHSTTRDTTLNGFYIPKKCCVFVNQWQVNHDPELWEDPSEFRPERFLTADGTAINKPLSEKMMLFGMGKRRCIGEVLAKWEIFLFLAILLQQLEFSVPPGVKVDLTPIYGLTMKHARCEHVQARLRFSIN
# [26] = test system: Rattus norvegicus; experiment: Antidyslipidemic activity in fasted Sprague-Dawley rat assessed as reduction in free fatty acid level in plasma at 3 mg/kg, po up to 2 hrs; assay type: functional, organism-based; set-up: dose 3 mg/kg
# [27] = AUC (0 to 24 hrs) in Sprague-Dawley rat at 5 mg/kg, po; assay type: ADME, organism-based; set-up: time < 24 hr, dose 5 mg/kg, route oral; details: plasma
# [28] = test system: Canis familiaris; experiment: Toxicity in fasted beagle dog assessed as change in skin colour at 1 to 10 mg/kg, po; assay type: organism-based, Canis lupus familiaris; set-up: dose 1-10 mg/kg, route oral; details: in vivo
# [29] = test system: Mus musculus; experiment: Nephrotoxicity in CD1 mouse at 100 mg/kg, po administered qd for 5 days measured 2 hrs post-last dose; assay type: toxicity, organism-based; set-up: dose 100 mg/kg, route oral; details: in vivo
# [30] = test system: Liver; experiment: Intrinsic clearance in dog liver microsomes assessed per 10^6 cells; assay type: ADME, Canis lupus familiaris, Microsome
# [31] = AUC (0 to 24 hrs) in beagle dog at 1 mg/kg, po; assay type: ADME, organism-based, Canis lupus familiaris; set-up: time < 24 hr, dose 1 mg/kg, route oral; details: plasma
# [32] = target: Cytochrome P450 2D6 (Homo sapiens, UniProt P10635); experiment: Inhibition of human CYP2D6; assay type: ADME
# [33] = test system: Rattus norvegicus; experiment: Antidyslipidemic activity in fasted Sprague-Dawley rat assessed as reduction in free fatty acid level in plasma at 3 mg/kg, po after 2 hrs; assay type: functional, organism-based; set-up: dose 3 mg/kg
# [34] = Oral bioavailability in Sprague-Dawley rat at 5 mg/kg; assay type: ADME, organism-based; details: in vivo
# [35] = test system: Canis familiaris; experiment: Toxicity in fasted beagle dog assessed as behavioural changes at 1 to 10 mg/kg, po; assay type: organism-based, Canis lupus familiaris; set-up: dose 1-10 mg/kg, route oral; details: in vivo
# [36] = test system: Liver microsomes; experiment: Intrinsic clearance in rat liver microsomes assessed per 10^6 cells; assay type: ADME, Microsome
# [37] = test system: Canis familiaris; experiment: Toxicity in fasted beagle dog assessed as increase in cutaneous blood flow at 30 mg/kg, po relative to control; assay type: organism-based, Canis lupus familiaris; set-up: dose 30 mg/kg, route oral; details: in vivo
# [38] = test system: Canis familiaris; experiment: Toxicity in fasted beagle dog assessed as behavioural changes at 30 mg/kg, po relative to control; assay type: organism-based, Canis lupus familiaris; set-up: dose 30 mg/kg, route oral; details: in vivo
# [39] = test system: Liver; experiment: Intrinsic clearance in mouse liver microsomes assessed per 10^6 cells; assay type: ADME, Microsome
# [40] = test system: Canis familiaris; experiment: Antidyslipidemic activity in fasted beagle dog assessed as reduction in free fatty acid level in plasma at 1 mg/kg, po after 1 hr relative to vehicle-treated control; assay type: functional, Canis lupus familiaris; set-up: scale not given: the % may be the effect or the level left
# [41] = test system: Canis familiaris; experiment: Toxicity in fasted beagle dog assessed as flushing at 1 to 10 mg/kg, po; assay type: organism-based, Canis lupus familiaris; set-up: dose 1-10 mg/kg, route oral; details: in vivo
# [42] = test system: Rattus norvegicus; experiment: Antidyslipidemic activity in fasted Sprague-Dawley rat assessed as reduction in triglyceride level in plasma at 3 mg/kg, po after 1 hr relative to vehicle-treated control; assay type: functional; set-up: scale not given: the % may be the effect or the level left
# [43] = test system: Rattus norvegicus; experiment: Antidyslipidemic activity in fasted Sprague-Dawley rat assessed as reduction in free fatty acid level in plasma at 3 mg/kg, po after 1 hr relative to vehicle-treated control; assay type: functional; set-up: scale not given: the % may be the effect or the level left
# Chain of Hydroxycarboxylic acid receptor 2 (Mus musculus, UniProt Q9EP66) (Q9EP66 whole entry): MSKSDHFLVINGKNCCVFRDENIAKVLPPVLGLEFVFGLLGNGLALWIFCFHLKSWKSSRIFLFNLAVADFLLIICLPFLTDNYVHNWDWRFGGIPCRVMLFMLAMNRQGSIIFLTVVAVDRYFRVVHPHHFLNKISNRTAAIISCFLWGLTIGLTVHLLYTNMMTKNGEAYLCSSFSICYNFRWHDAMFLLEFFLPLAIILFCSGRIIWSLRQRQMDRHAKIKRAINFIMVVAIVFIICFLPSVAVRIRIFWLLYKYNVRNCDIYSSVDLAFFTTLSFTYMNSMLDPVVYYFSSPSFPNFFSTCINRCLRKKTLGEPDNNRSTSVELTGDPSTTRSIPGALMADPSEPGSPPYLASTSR
# Chain of Hydroxycarboxylic acid receptor 2 (Rattus norvegicus, UniProt Q80Z39) (Q80Z39 whole entry): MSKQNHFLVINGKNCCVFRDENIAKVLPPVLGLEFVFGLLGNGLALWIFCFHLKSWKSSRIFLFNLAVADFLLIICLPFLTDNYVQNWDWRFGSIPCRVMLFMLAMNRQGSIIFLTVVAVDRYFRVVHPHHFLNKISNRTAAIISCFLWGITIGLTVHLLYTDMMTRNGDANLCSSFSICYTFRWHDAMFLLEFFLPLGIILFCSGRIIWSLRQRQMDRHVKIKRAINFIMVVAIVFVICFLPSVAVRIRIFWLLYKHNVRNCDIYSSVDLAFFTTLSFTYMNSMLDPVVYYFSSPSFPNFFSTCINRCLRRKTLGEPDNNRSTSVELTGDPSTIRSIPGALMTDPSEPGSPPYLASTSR
# Chain of Hydroxycarboxylic acid receptor 3 (P49019 whole entry): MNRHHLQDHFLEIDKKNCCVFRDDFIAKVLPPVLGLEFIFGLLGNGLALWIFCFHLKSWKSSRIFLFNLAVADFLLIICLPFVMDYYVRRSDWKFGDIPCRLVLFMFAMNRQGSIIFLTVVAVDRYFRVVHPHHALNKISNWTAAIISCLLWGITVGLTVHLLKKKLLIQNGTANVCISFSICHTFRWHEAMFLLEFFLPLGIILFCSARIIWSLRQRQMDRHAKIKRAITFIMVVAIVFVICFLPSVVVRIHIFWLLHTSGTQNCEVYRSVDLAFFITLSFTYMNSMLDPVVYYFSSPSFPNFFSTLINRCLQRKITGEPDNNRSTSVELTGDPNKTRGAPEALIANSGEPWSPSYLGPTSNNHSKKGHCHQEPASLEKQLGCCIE
# Chain of Cytochrome P450 3A4 (P08684 whole entry): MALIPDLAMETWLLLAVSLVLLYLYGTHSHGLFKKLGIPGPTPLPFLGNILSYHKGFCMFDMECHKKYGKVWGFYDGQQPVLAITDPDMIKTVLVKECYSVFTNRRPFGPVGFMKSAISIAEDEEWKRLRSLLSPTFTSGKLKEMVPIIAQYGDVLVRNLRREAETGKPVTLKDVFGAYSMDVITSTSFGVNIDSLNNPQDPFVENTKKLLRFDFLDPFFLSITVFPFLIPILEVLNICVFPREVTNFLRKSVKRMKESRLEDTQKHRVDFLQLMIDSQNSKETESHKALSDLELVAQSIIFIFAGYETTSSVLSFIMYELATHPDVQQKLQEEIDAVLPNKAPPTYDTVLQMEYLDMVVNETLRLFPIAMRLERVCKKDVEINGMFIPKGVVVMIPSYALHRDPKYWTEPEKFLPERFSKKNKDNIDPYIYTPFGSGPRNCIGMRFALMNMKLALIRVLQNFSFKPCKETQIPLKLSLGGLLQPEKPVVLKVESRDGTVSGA
# Chain of Cytochrome P450 2D6 (P10635 whole entry): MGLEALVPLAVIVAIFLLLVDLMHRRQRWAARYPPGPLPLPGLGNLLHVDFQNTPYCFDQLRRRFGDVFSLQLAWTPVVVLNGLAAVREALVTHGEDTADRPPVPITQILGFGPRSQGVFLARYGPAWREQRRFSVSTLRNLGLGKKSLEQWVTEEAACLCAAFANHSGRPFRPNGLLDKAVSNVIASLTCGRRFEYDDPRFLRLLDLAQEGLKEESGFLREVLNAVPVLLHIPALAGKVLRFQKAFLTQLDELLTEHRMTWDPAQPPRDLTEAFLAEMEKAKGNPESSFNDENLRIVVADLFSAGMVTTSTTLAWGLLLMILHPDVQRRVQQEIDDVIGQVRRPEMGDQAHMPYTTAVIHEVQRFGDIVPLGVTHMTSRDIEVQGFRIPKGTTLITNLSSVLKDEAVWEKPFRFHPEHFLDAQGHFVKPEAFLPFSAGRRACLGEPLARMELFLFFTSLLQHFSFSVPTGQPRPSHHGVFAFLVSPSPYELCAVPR
# Chain of Cytochrome P450 2C9 (P11712 whole entry): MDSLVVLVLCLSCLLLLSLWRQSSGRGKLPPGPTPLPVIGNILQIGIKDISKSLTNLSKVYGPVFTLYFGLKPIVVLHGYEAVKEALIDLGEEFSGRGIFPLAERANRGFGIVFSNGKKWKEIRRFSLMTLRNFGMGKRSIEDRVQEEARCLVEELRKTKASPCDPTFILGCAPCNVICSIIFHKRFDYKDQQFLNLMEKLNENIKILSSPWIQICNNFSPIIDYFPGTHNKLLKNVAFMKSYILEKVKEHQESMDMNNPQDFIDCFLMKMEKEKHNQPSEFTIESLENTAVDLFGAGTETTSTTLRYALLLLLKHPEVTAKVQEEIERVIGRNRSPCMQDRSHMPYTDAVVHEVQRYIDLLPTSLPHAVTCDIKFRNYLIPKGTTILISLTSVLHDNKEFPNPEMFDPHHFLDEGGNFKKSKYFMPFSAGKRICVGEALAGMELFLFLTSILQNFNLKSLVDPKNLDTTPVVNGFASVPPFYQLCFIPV
# Chain of Voltage-gated inwardly rectifying potassium channel KCNH2 (Q12809 whole entry): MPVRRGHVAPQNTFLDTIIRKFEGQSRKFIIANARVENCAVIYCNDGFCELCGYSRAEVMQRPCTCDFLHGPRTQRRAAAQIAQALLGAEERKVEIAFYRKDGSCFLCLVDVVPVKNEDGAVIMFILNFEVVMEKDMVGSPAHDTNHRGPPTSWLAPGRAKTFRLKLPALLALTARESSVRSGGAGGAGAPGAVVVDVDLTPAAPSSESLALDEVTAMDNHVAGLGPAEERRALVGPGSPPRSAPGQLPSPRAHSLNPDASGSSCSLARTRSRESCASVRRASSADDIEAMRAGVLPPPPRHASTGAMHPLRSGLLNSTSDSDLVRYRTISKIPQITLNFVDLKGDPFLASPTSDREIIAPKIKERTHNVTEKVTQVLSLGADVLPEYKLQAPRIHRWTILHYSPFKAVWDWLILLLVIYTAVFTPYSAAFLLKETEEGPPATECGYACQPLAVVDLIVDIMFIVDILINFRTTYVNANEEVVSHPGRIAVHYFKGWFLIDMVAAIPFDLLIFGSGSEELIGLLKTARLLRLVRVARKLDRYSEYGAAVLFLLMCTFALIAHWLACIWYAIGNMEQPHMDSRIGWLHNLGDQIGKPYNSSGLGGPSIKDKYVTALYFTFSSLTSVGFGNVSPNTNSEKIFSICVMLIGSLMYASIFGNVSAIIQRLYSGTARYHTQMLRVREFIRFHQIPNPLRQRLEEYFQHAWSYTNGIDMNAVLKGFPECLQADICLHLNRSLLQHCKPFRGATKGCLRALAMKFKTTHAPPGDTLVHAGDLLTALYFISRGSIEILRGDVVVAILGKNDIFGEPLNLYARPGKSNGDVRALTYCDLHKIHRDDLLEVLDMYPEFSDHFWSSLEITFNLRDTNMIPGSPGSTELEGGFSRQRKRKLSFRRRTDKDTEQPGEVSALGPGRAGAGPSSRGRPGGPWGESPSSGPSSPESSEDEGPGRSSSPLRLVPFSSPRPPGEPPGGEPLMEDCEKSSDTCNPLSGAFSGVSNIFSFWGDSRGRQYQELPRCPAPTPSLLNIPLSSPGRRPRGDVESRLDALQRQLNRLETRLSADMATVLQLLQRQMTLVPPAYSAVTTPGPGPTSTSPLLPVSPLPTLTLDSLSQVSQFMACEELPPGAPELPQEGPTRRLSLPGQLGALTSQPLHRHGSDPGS
smiles,measurement,setting,value
CCCCc1cc(=O)oc2[nH]c(=O)[nH]c(=O)c12,Activity,[1],Toxic
same,Activity,[2],29%
same,Activity,[3],Non-toxic
same,EC50,[4],0.008 µM
same,Activity,[5],Toxic
same,Activity,[6],Non-toxic
same,Activity,[7],90%
same,EC50,[8],0.016 µM
same,EC50,[9],0.19 µM
same,Activity,[10],40%
same,Activity,[11],Toxic
same,EC50,[12],0.012 µM
same,Activity,[13],Dose-dependent effect
O=c1[nH]c(=O)c2c(CCCC(F)F)cc(=O)oc2[nH]1,Activity,[14],80%
same,EC50,[4],0.002 µM
same,EC50,[9],0.059 µM
same,Activity,[10],59%
same,EC50,[12],0.005 µM
same,Activity,[15],Toxic
same,Activity,[16],inactive
O=c1[nH]c(=O)c2c(CCCC3CC3)cc(=O)oc2[nH]1,Activity,[2],58%
same,Activity,[17],80%
same,Activity,[3],Non-toxic
same,EC50,[4],0.002 µM
same,Activity,[5],Toxic
same,Activity,[6],Non-toxic
same,EC50,[8],0.001 µM
same,EC50,[9],0.14 µM
same,Activity,[10],49%
same,Activity,[11],Toxic
O=c1[nH]c(=O)c2c(CCC3CCC3)cc(=O)oc2[nH]1,Activity,[2],50%
same,Activity,[3],Non-toxic
same,EC50,[4],0.005 µM
same,Activity,[5],Toxic
same,Activity,[6],Non-toxic
same,EC50,[9],0.067 µM
same,Activity,[10],31%
same,Activity,[11],Toxic
same,EC50,[12],0.004 µM
CC1(CCCc2cc(=O)oc3[nH]c(=O)[nH]c(=O)c23)CC1 [SCH-900271],Activity,[18],Dose-dependent effect
same,ED50,[18],0.5 mg/kg
same,minimal effective dose,[18]; read-out: MED,3 mg/kg
same,Activity,[2],53%
same,bioavailability,[19],40%
same,inhibition (INH),[20],Not Active
same,CLH,[21],1.6 µL/min
same,Activity,[22],Dose-dependent effect
same,ED50,[22],0.5 mg/kg
same,minimal effective dose,[22],3 mg/kg
same,IC50,[23],> 50 µM
same,IC50,[24],> 50 µM
same,IC50,[25],> 50 µM
same,Activity,[26],Active
same,EC50,[4],0.008 µM
same,AUC(0-t) at 24 h,[27],7.6 µM·h
same,Activity,[28],Non-toxic
same,Activity,[29],Non-toxic
same,CLH,[30],< 1 µL/min
same,AUC(0-t) at 24 h,[31],7.2 µM·h
same,EC50,[8],0.005 µM
same,IC50,[32],> 50 µM
same,Activity,[33],inactive
same,bioavailability,[34],76%
same,Activity,[35],Non-toxic
same,EC50,[9],0.096 µM
same,CLH,[36],10 µL/min
same,fold change (FC),[37],5
same,Activity,[10],53%
same,Activity,[38],Non-toxic
same,CLH,[39],8.7 µL/min
same,EC50,[12],0.006 µM
same,Activity,[40],50%
same,Activity,[41],Non-toxic
O=C(O)c1cccnc1 [NIACIN],Activity,[14],38%
same,minimal effective dose,[22],10 mg/kg
same,EC50,[8],0.031 µM
same,EC50,[9],> 10 µM
CC(C)CCc1cc(=O)oc2[nH]c(=O)[nH]c(=O)c12,EC50,[9],1.3 µM
same,Activity,[42],16%
same,Activity,[43],15%
